Assay results from patent publication US20200289521A1, “USE OF VITAMIN K IN COMBINATION WITH ANTICOAGULANTS” (KAYDENCE PHARMA AS, priority 2019, published 2020).

Columns and labels:
VSMCs [1] = experiment: Oxidative stress in VSMCs (DCFDA to DCF fluorescence); assay type: cell-based; settings: 10 μM, fluorescence measured for 6 hours
Procedure: It is known that the level of reactive oxygen species in cells can be measured by measuring the conversion of 2′,7′-dichlorofluorescein diacetate (DCFDA) to the fluorescent dye 2′,7′-dichlorofluorescein (DCF). The fluorescence generated by cells subjected to DCFDA is directly proportional to the amount of oxidized DCFDA to DCF.
To perform the study, VSMCs (10,000 cells/well) were plated in a 96-well plate and left to adhere overnight. Next, cells were incubated for 1 hour with 20 μM DCFDA. The medium was then changed to medium supplemented with 10 μM vitamin K2 (MK-7). To visualize intracellular oxidative stress, fluorescence was measured for 6 hours and fluorescence intensity was normalized for cell count.

VSMCs [2] = experiment: ATP increase in VSMCs, 24 hours (luminescence); assay type: cell-based; settings: 10 μM
Procedure: This study was performed to determine if vitamin K2 (MK-7) affects ATP generation. ATP is generated via glycolysis in the cytoplasm and via both the Krebs-cycle and oxidative phosphorylation in the mitochondria. ATP generation via glycolysis delivers only 2 ATP, whereas ATP generation in the mitochondria generates some 32 ATP.
(§1) To perform this study, VSCMs (5000 cells/well) were plated in 96-well plates and left to adhere overnight. Next, cells were incubated for 24 hours with either vehicle, vitamin K2 (MK-7) (10 μM), or UQ10 (10 μM). Hoechst was added to correct for cell number (1 μg/mL). Next, ATP was measured using mammalian lysis buffer for 5 minutes after which 50 μL ATP substrate solution was added to the wells and incubated for 10 minutes in a dark environment. Finally, the medium was transferred to a white plate to measure luminescence

VSMCs [3] = experiment: Hypoxia-induced ATP decrease, co-treatment with CoCl2 (luminescence); assay type: cell-based; settings: co-treatment CoCl2 100 μM and 10 μM test substance, 24 hours
Procedure: This study was performed to investigate whether vitamin K2 (MK-7) can prevent the hypoxia-induced decrease in ATP (CoCl2 treatment, thereby stabilization of HIF1a). To perform this study, VSMCs were co-treated with CoCl2 and vitamin K2 (MK-7).
as §1, with “First,” for “To perform this study,”, “CoCl2 (100 μM) or CoCl2 and” for “vehicle,”, “(MK-7)” for “(MK-7) (10 μM),”, “together (100 and 10 μM, respectively). Next, ATP was measured and corrected for cell numbers. CoCl2 values were set as relative to CoCl2 co-treated with vitamin K2 (MK-7) or UQ10.” for “(10 μM).”, “Finally,” for “Finally, the”, “luminescence.” for “luminescence”

VSMCs [4] = experiment: ATP over time in VSMCs with vitamin K2 (luminescence); assay type: cell-based; settings: 10 μM, indicated time points
Procedure: To perform this study, first, VSCMs (5000 cells/well) were plated in 96-well plates and left to adhere overnight. Next, cells were incubated for indicated time points with vitamin K2 (MK-7) (10 μM). Hoechst was added to correct for cell number (1 μg/mL). Next, ATP was measured using mammalian lysis buffer for 5 minutes, after which 50 μL ATP substrate solution was added to the wells and incubated for 10 minutes in a dark environment. Finally, medium was transferred to a white plate to measure luminescence.

[5] = system: whole-blood thrombogenicity; experiment: T-TAS Total Thrombus-formation Analysis of whole blood from treated Sprague-Dawley rats; assay type: in vivo
Procedure: (§2) This experiment was conducted in order to evaluate the effects of vitamin K2 (MK-7) on the anticoagulant activity of the new oral anticoagulants (NOAC) rivaroxaban and dabigatran using the T-TAS Total Thrombus-formation Analysis System. The T-TAS Total Thrombus-formation Analysis System is a microchip-based flow chamber system capable of evaluating whole-blood thrombogenicity. It is a useful tool in monitoring the efficacy of anticoagulants on thrombus formation and predicting the risk of bleeding complications. To perform the study, 45 wild-type male Sprague-Dawley and 45 transgenic male Ren-2 rats [TGR(mREN-2)27] at the age of 10-11 weeks at the beginning of the treatment period were purchased from animal facility IKEM-CEM Institute of Clinical and Experimental Medicine (Prague, Czech Republic). All animals in the experiment were housed in individually ventilated cages (2-3 rats per cage) and kept in the animal rooms of JCET at a relative humidity of 55±10%, a temperature of 22±2° C., and a light cycle of 7 AM to 7 PM. The rats had free access to food and water. After delivery, animals were randomly divided into 10 experimental groups (5 or 10 rats per group), as indicated below in Table 1. Four days before the start of the treatment, the first part of animals' body weight and food intake was measured in selected representative three cages (rats n=9) to calculate the appropriate amount of tested compounds required for addition to the diet to obtain the dosing indicated in Table 1. It was estimated that food intake was approximately 30 g of chow per rat per day. The animals were fed for two weeks with AIN-93G diet supplemented with rivaroxaban or dabigatran with/without Vitamin K2 (MK-7), as indicated in Table 1. The animals were then anesthetized in order to draw blood samples for further analysis. The body mass of the rats was measured at the beginning and at the end of treatment. At the beginning and at the end of treatment, the food intake per day was measured in representative group of animals to monitor the daily dosing of tested compounds (per kg of body mass). The thrombus formation in vitro was measured in whole blood using a microchip-based flow chamber system according to manufacturers' protocol (Total Thrombus-formation Analyser System, T-TAS; Fujimori Kogyo Co., Ltd., Tokyo, Japan). For the analysis, citrated whole blood (480 μl) was mixed with 20 μl of 300 mM CaCl2 solution containing 1.25 mg/ml CTI (Corn Trypsin Inhibitor). […] The obtained flow pressure pattern for each sample was used to analyze thrombus formation based on the following estimated parameters: […]

[6] = system: whole-blood thrombogenicity; experiment: T-TAS Total Thrombus-formation Analysis of whole blood from treated TGR rats; assay type: in vivo, transgenic Ren-2 rats [TGR(mREN-2)27]
Procedure: as §2

CC(C)=CCC/C(C)=C/CC/C(C)=C/CC/C(C)=C/CC/C(C)=C/CC/C(C)=C/CC/C(C)=C/CC1=C(C)C(=O)c2ccccc2C1=O [vitamin K2 (MK-7)]
oxidative stress (DCF fluorescence normalized for cell count) (VSMCs [1]): clearly reduced the oxidative stress | ATP production compared to the vehicle (VSMCs [2]): increased ATP production in VSMCs significantly (p=0.014) | hypoxia-induced decrease in ATP generation (VSMCs [3]): could (partially) prevent the decreased ATP generation | ATP production over time (VSMCs [4]): stimulated ATP production | increase of occlusion Time (OT) by addition of vitamin K2 (MK-7) ([5]; added to dabigatran and to rivaroxaban): 5-7% | formation of a clot (AUC) ([5]; vitamin K2 (MK-7) added to dabigatran or rivaroxaban): did not prevent the formation of a clot | effect of vitamin K2 (MK-7) on inhibition of thrombus formation by dabigatran and rivaroxaban [6]: did not modify this effect significantly
